Assays:
[1] = molecular target: T1, PTH receptors (bovine renal cortical plasma membranes) (Bos taurus, UniProt Q1LZF7); assay: Bovine renal membrane binding assay; details: radioligand [Nle^8, 8, (^125 I)-Tyr^34 ]bPTH (1-34)NH2, 30 min, 21° C
T1 construct: from tissue; host or cells: bovine renal cortex plasma membranes
T1 sequence (Q1LZF7 29-589): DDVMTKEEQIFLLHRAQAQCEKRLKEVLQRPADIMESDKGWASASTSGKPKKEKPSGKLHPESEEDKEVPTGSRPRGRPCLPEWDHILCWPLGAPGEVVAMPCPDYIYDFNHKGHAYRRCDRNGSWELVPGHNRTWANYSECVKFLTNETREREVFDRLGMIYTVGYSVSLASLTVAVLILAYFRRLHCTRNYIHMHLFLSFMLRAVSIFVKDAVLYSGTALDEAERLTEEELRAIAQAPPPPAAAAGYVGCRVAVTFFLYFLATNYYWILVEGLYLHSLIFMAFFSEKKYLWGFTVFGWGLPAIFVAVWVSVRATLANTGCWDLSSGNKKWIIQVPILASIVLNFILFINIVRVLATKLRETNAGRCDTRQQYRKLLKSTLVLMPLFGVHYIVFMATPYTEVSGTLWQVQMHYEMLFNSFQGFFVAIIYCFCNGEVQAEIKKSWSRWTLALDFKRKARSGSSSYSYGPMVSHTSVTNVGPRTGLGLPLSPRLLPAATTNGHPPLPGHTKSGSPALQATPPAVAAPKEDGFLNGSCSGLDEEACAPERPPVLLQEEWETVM
Protocol: HCF analogues were analysed in a new receptor assay reported in Goldman et al., Endocrin 123: 1468-1475 (1988). The binding assay used [Nle^8, 8, (^125 I)-Tyr^34 ]bPTH (1-34)NH2 which was purified by HPLC (Novapak C18, 32-35% CH3 CN in 0.1% TFA) and was stored as aliquots in 25 mM TrisHCl/1%BSA at -70° C. Bovine renal cortical plasma membranes were incubated with radioligand (25,000 cpm) in a Tris-containing buffer (250 μl) for 30 min at room temperature 21° C. Once equilibrium was reached, bound and free radioligand were separated by centrifugation. High specific binding (85%) to bovine renal cortical membranes was obtained consistently.

[2] = system: adenylate cyclase, human osteosarcoma cell line, B10; assay: Human bone cell (B 10) adenylate cyclase assay; type: cell-based; details: inhibition of cAMP stimulation by lnM [Nle^8,18, Tyr^34 ] bPTH(1-34) NH2; B10 cells
Protocol: HCF analogues were analyzed in a human osteosarcoma cell line, B10, for the ability to inhibit cAMP stimulation by lnM [Nle^8,18, Tyr^34 ] bPTH(1-34) NH2 by the method described by R. J. Majeska et al, Endocrinol. 107, 1494 (1980).
Adenylate cyclase assay: Confluent cultures were rinsed in CMFH and scraped into 0.5-1.0 ml buffer (10 mM Tris-HCl, pH 7.8; 1 mM dithiothreitol, 0.2 mM MgCl2; and 0.5 mM EGTA) and homogenized with 10 strokes of a Dounce homogenizer (pestle A). Adenylate cyclase activity was measured by the method of Salomon et al., (18) on samples of either homogenate or membrane pellets obtained by centrifugation of diluted homogenates at 47,000×g for 30 min. The enzyme assay mix contained 0.1-0.3 mM [α-^32 P]ATP, MgCl2, and guanine nucelotides, as specified in the tables and FIGURES, and 1 mM cAMP, 5 mM phosphocreatine, and 100 U/ml creatine phosphokinase. Purified bovine PTH-(1-84), generously provided by Drs. H. Keutmann and M. Rosenblatt, Massachusetts General Hospital, Boston, MA, was dissolved and diluted in 1.5 ml/liter acetic acid containing 1 g/liter bovine serum albumin (Pentex fraction V, Miles Laboratories, Elkhart, IN). L-Isoproterenol bitarate (Sigma Chemical Co., St. Louis, MO) was prepared immediately before use and dissolved and diluted in assay buffer. Control tubes were assayed in the presence of diluent alone.

[3] = molecular target: T2, PTH receptors (human bone cells) (Homo sapiens, UniProt Q03431); assay: Human bone cell binding assay; details: confluent monolayers, radioligand [Nle^8,18,(^125 I)-Tyr^34 ]bPTH(1-34)NH2, room temperature, 4 hours
T2 construct: endogenous in cells
T2 sequence (Q03431 27-593): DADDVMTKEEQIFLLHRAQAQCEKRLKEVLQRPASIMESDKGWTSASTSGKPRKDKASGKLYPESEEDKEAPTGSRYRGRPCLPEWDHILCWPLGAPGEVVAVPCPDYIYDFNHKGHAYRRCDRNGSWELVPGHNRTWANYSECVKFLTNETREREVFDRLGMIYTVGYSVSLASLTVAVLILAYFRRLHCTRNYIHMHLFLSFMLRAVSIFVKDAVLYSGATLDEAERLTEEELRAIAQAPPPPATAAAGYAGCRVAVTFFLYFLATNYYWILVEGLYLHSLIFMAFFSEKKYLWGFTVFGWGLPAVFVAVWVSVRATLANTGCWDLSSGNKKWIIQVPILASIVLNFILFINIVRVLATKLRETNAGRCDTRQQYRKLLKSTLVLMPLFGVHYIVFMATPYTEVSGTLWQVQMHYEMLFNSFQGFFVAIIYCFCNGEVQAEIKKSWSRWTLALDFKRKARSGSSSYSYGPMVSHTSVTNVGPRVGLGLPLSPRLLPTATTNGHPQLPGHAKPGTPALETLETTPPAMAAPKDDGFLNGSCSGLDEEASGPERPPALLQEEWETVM
Protocol: HCF analogues were analyzed in a new receptor binding assay as follows. Cells were plated in 24-well dishes in RPMl 1640 medium supplemented with 1% BSA, 20 mM HEPES, pH 7.5, and 0.1% azide. [Nle^8,18,(^125 I)-Tyr^34 ]bPTH(1-34)NH2 (50,000 cpm/well) was added to confluent monolayers in the absence or presence of varying concentrations of analogue under investigation in a final volume of 0.25 ml. Cultures were incubated at room temperature for 4 hours. Reactions were terminated by placing the cultures on ice and washing 4 times with ice cold PBS. Radioactivity associated with the cells was recovered by solubilizing the cells with 1 ml of 1N NaOH.

Question: Which Kb [1] does the source give for `CC[C@H](C)[C@H](NC(=O)[C@H](CC(C)C)NC(=O)[C@H](Cc1c[nH]cn1)NC(=O)[C@H](Cc1c[nH]cn1)NC(=O)[C@H](CC(C)C)NC(=O)[C@H](Cc1ccccc1)NC(=O)[C@H](Cc1ccccc1)NC(=O)[C@H](CCCNC(=N)N)NC(=O)[C@H](CCCNC(=N)N)NC(=O)[C@H](CCCNC(=N)N)NC(=O)[C@H](CC(C)C)NC(=O)[C@H](CC(=O)O)NC(=O)[C@H](CCC(N)=O)NC(=O)[C@@H](NC(=O)[C@H](CO)NC(=O)[C@H](CCCCNC(=O)CCNC(=O)CCCC[C@@H]1SC[C@@H]2NC(=O)N[C@@H]21)NC(=O)[C@@H](Cc1c[nH]c2ccccc12)NC(=O)[C@H](CC(C)C)NC(=O)[C@H](CC(=O)O)NC(=O)[C@H](Cc1c[nH]cn1)NC(=O)[C@H](CC(C)C)NC(=O)[C@@H](N)CC(C)C)[C@@H](C)CC)C(=O)N[C@@H](C)C(=O)N[C@@H](CCC(=O)O)C(=O)N[C@H](C(=O)N[C@@H](Cc1c[nH]cn1)C(=O)N[C@H](C(=O)N[C@@H](C)C(N)=O)[C@@H](C)O)[C@@H](C)CC` [[Leu^11,D-Trp^12,Lys^13 (ε-(N-biotinyl β-Ala))]hHCF(7-34)NH2] here?
Answer: The Kb was 22.6 nM.

Question: And the Ki [2]?
Answer: Its Ki is 7.6 nM.

Question: And the Ki [3]?
Answer: The Ki was 37.3 nM.

From US5087561A, “Humoral hypercalcemic factor antagonists modified at position 13 by biotin” (Merck & Co., Inc., priority 1990, dated 1992)
